The source made the active and inactive calls. The rule behind the calls is not given here.
Columns and labels:
[1] = test system: Escherichia coli; experiment: Antibacterial activity against Escherichia coli DH5alpha; format: functional, organism-based
[2] = test system: Pseudomonas aeruginosa; experiment: Inhibition of biofilm formation in Pseudomonas aeruginosa NBRC13275 at 156 uM measured after 6 hrs by crystal violet staining based assay relative to control; format: functional
[3] = test system: Escherichia coli; experiment: Potency index, ratio of compound effect to c-di-GMP effect on inhibition of biofilm formation in Escherichia coli DH5alpha; format: functional
[4] = test system: Escherichia coli; experiment: Inhibition of biofilm formation in Escherichia coli DH5alpha at 156 uM measured after 24 hrs by crystal violet staining based assay relative to control; format: functional; details: DH5-alpha
[5] = test system: Pseudomonas aeruginosa; experiment: Antibacterial activity against Pseudomonas aeruginosa NBRC13275; format: functional, organism-based
[6] = test system: Staphylococcus aureus; experiment: Inhibition of biofilm formation in Staphylococcus aureus NBRC13276 at 156 uM measured after 24 hrs by crystal violet staining based assay relative to control; format: functional
[7] = test system: Staphylococcus aureus; experiment: Antibacterial activity against Staphylococcus aureus NBRC13276; format: functional, organism-based

SMILES | Activity [1] | inhibition at 156 µM [2] | Ratio [3] | inhibition at 156 µM [4] | Activity [5] | inhibition at 156 µM [6] | Activity [7]
O=P1(O)OC[C@H]2O[C@@H](n3cc(-c4ccc(F)c(F)c4)nn3)[C@H](O)[C@@H]2OP(=O)(O)OC[C@H]2O[C@@H](n3cc(-c4ccc(F)c(F)c4)nn3)[C@H](O)[C@@H]2O1 | inactive | 51.4% | 2 | 24.4% | inactive | 15.9% | inactive
Nc1nc2c(ncn2[C@@H]2O[C@@H]3COP(=O)(O)O[C@H]4[C@@H](O)[C@H](n5cnc6c(=O)[nH]c(N)nc65)O[C@@H]4COP(=O)(O)O[C@H]3[C@H]2O)c(=O)[nH]1 |  | 52.9% |  | 12.5% |  |  | 
O=P1(O)OC[C@H]2O[C@@H](n3cc(-c4ccncc4)nn3)[C@H](O)[C@@H]2OP(=O)(O)OC[C@H]2O[C@@H](n3cc(-c4ccncc4)nn3)[C@H](O)[C@@H]2O1 | inactive | 21.9% | 2 | 34.2% | inactive | 39.6% | inactive
COc1ccc(-c2cn([C@@H]3O[C@@H]4COP(=O)(O)O[C@H]5[C@@H](O)[C@H](n6cc(-c7ccc(OC)cc7)nn6)O[C@@H]5COP(=O)(O)O[C@H]4[C@H]3O)nn2)cc1 | inactive | 53.3% | 2 | 36.7% | inactive | 19% | inactive
O=P1(O)OC[C@H]2O[C@@H](n3cc(-c4ccc(F)cc4)nn3)[C@H](O)[C@@H]2OP(=O)(O)OC[C@H]2O[C@@H](n3cc(-c4ccc(F)cc4)nn3)[C@H](O)[C@@H]2O1 | inactive | 57.9% | 2 | 25.1% | inactive | 4.86% | inactive
O=P1(O)OC[C@H]2O[C@@H](n3cc(-c4ccccc4)nn3)[C@H](O)[C@@H]2OP(=O)(O)OC[C@H]2O[C@@H](n3cc(-c4ccccc4)nn3)[C@H](O)[C@@H]2O1 | inactive | 44.2% | 2 | 39.9% | inactive | 24.1% | inactive
O=P1(O)OC[C@H]2O[C@@H](n3cc(-c4ccc(Br)cc4)nn3)[C@H](O)[C@@H]2OP(=O)(O)OC[C@H]2O[C@@H](n3cc(-c4ccc(Br)cc4)nn3)[C@H](O)[C@@H]2O1 | inactive | 46% | 2 | 35.1% | inactive | 21.2% | inactive
O=P1(O)OC[C@H]2O[C@@H](n3cc(-c4cccc(F)c4)nn3)[C@H](O)[C@@H]2OP(=O)(O)OC[C@H]2O[C@@H](n3cc(-c4cccc(F)c4)nn3)[C@H](O)[C@@H]2O1 | inactive | 57.7% | 2 | 30.6% | inactive | 7.15% | inactive
O=P1(O)OC[C@H]2O[C@@H](n3cc(-c4ccccc4F)nn3)[C@H](O)[C@@H]2OP(=O)(O)OC[C@H]2O[C@@H](n3cc(-c4ccccc4F)nn3)[C@H](O)[C@@H]2O1 | inactive | 59.4% | 2 | 39.1% | inactive | 16% | inactive
O=P1(O)OC[C@H]2O[C@@H](n3cc(-c4cc(F)cc(F)c4)nn3)[C@H](O)[C@@H]2OP(=O)(O)OC[C@H]2O[C@@H](n3cc(-c4cc(F)cc(F)c4)nn3)[C@H](O)[C@@H]2O1 | inactive | 47.3% | 2 | 45.8% | inactive | 8.24% | inactive
